The values that follow come from patent US4122088A, “Dicarboxyphenyl substituted bis-sulfonylimino dibenzodithiazepine tetroxides” (American Cyanamid Company, priority 1977, dated 1978).

One assay concerns complement system. To be noted: literature reports; cited from earlier work.
In the next assay the test system is human C1. Kind of assay: Test, Code 026 (C1 inhibitor): ability of activated human C1 to destroy fluid phase human C2 in the presence of C4. To be noted: serial dilution assay, two-fold dilutions; higher well number indicates higher activity. The assay is classed as biochemical. From the text: (§1) An active inhibitor protects C2 from C1 and C4; (ii) Test, Code 035 (C3-C9 inhibitor) - This test determines the ability of the late components of human complement (C3-C9) to lyse EAC 142 in the presence of appropriate dilutions of the test compound. An active inhibitor protects EAC 142 from lysis by human C3-C9; (iii) Test, Code 036 (C-Shunt inhibitor) - In this test human erythrocytes rendered fragile are lysed in autologous serum via the shunt pathway activated by cobra venom factor in the presence of appropriate dilutions of the test compound. Inhibition of the shunt pathway results in failure of lysis; (iv) Forssman Vasculitis Test -- Here, the well known complement dependent lesion, Forssman vasculitis, is produced in guinea pigs by intradermal injection of rabbit anti-Forssman antiserum. […]

Assay [1] has as its system late components of human complement (C3-C9). Kind of assay: Test, Code 035 (C3-C9 inhibitor): lysis of EAC 142 by late components of human complement. It is filed as cell-based. Set-up: key: Negative. To be noted: serial dilution assay, two-fold dilutions; higher well number indicates higher activity.
From the text: as §1

In a further assay the test system is shunt pathway. Kind of assay: Test, Code 036 (C-Shunt inhibitor): lysis of human erythrocytes in autologous serum via the shunt pathway activated by cobra venom factor. The assay is classed as cell-based. To be noted: serial dilution assay, two-fold dilutions; higher well number indicates higher activity.
From the text: as §1

A further assay deals with whole complement. Kind of assay: Complement Level Reduction Test: whole complement in serum of dosed guinea pigs, capillary tube assay. To be noted: Cavia porcellus, ip, guinea pig, i.p., versus simultaneous controls. The assay is classed as in vivo. An excerpt: An active inhibitor protects C2 from C1 and C4; (ii) Test, Code 035 (C3-C9 inhibitor) - This test determines the ability of the late components of human complement (C3-C9) to lyse EAC 142 in the presence of appropriate dilutions of the test compound. An active inhibitor protects EAC 142 from lysis by human C3-C9; (iii) Test, Code 036 (C-Shunt inhibitor) - In this test human erythrocytes rendered fragile are lysed in autologous serum via the shunt pathway activated by cobra venom factor in the presence of appropriate dilutions of the test compound. Inhibition of the shunt pathway results in failure of lysis; (iv) Forssman Vasculitis Test -- Here, the well known complement dependent lesion, Forssman vasculitis, is produced in guinea pigs by intradermal injection of rabbit anti-Forssman antiserum. The lesion is measured in terms of diameter, edema and hemorrhage and the extent to which a combined index of these is inhibited by prior intraperitoneal injection of the test compound at 200 mg/kg is then reported, unless otherwise stated; (v) Forssman Shock Test -- Lethal shock is produced in guinea pigs by an i.v. injection of anti-Forssman antiserum and the harmonic mean death time of treated guinea pigs is compared with that of simultaneous controls; (vi) Complement Level Reduction Test - In this test, the above dosed guinea pigs, or others, are bled for serum and the complement level is determined in undiluted serum by the capillary t3be method of U.S. Pat. No. 3,876,376 and compared to undosed control guinea pigs; and (vii) Cap 50 Test -- Here, appropriate amounts of the test compound are added to a pool of guinea pig serum in vitro, after which the undiluted serum capillary tube assay referred to above is run. The concentration of compound inhibiting 50% is reported.
With reference to Table I, guinea pigs weighing about 300 g were dosed intravenously (i.v.) or intraperitoneally (i.p.) with 200 mg/kg of the test compound dissolved in saline and adjusted to pH 7-8. […] Percent inhibition was calculated by comparison with simultaneous controls. […]

For assay [2] the following is noted: New England Journal of Medicine, 286, 808-812 (1972); cited from earlier work.

Where a name gives a salt, the structure may show the parent alone. Read-outs that look alike come from different tables or passages of the source.

As to heparin, in the assay with complement system, the “anticomplementary effect / inhibition of the complement system” value (“anticomplementary effect / inhibition” for short) is recorded as “anticomplementary effect”. In the case of `O=C(O)c1cc(NS(=O)(=O)c2ccc3c(c2)S(=O)(=O)N(c2cc(C(=O)O)cc(C(=O)O)c2)S(=O)(=O)c2cc(S(=O)(=O)Nc4cc(C(=O)O)cc(C(=O)O)c4)ccc2-3)cc(C(=O)O)c1` [5,5'-{[6-(3,5-Dicarboxyphenyl)dibenzo[d,f][1,3,2]-dithiazepine-3,9-diyl]bis(sulfonylimino)}diisophthalic acid hexasodium salt S,S,S',S'-tetroxide], in the assay with human C1, the “C1 026* Wells” value was “+5 Wells”. Moreover, in assay [1], the “C-Late 035* Wells” value was “N”. The “Shunt Inhibition 036* Wells” value with shunt pathway is recorded as “+3 Wells”. Moreover, the inhibition at 200 mg/kg in the assay with whole complement (0.5 h, 30 min, read-out: In Vivo Activity (Guinea Pig) % Inhibition, Intraperitoneal, 30 minutes) was -23%; in the assay on whole complement (1 h, 60 min, read-out: In Vivo Activity (Guinea Pig) % Inhibition, Intraperitoneal, 60 minutes), -57%; in the assay on whole complement (2 h, 120 min, read-out: In Vivo Activity (Guinea Pig) % Inhibition, Intraperitoneal, 120 minutes), -42%. As for `NCCCCCC(=O)O` [epsilon-aminocaproic acid], the “use in the treatment of hereditary angioneurotic edema” value in assay [2] is given as “used with success”. With `Cc1ccc(C(=O)Nc2ccc(S(=O)(=O)O)c3cc(S(=O)(=O)O)cc(S(=O)(=O)O)c23)cc1NC(=O)c1cccc(NC(=O)Nc2cccc(C(=O)Nc3cc(C(=O)Nc4ccc(S(=O)(=O)O)c5cc(S(=O)(=O)O)cc(S(=O)(=O)O)c45)ccc3C)c2)c1` [Suramin], the “anticomplementary effect / inhibition” value in the assay on complement system is listed as “competitive inhibitor of the complement system”. As for `Nc1ccc2cc(S(=O)(=O)O)cc(O)c2c1N=Nc1ccc(NC(=O)Nc2ccc(N=Nc3c(N)ccc4cc(S(=O)(=O)O)cc(O)c34)c(S(=O)(=O)O)c2)cc1S(=O)(=O)O` [chlorazol fast pink, 3,3'-ureylenebis-[6-(2-amino-8-hydroxy-6-sulfo-1-naphthylazo)] benzenesulfonic acid, tetrasodium salt], the “anticomplementary effect / inhibition” value with complement system is on record as “anticomplementary effect”. Regarding `NC[C@H]1CC[C@H](C(=O)O)CC1` [tranexamic acid], in assay [2], the “use in the treatment of hereditary angioneurotic edema” value is “used with success”.
